{"source": "patent US4192944A", "about": "“Optionally substituted 4-oxo-4H-pyrido[1,2-a]pyrimidine-3-N-(1H-tetrazol-4-yl)carboxamides and their use as antiallergy agents” (priority 1978, dated 1980)", "key": {"[1]": {"details": "cited from earlier work"}, "[2]": {"test_system": "reagin-mediated Passive Cutaneous Anaphylaxis (PCA)", "experiment": "reagin-mediated rat Passive Cutaneous Anaphylaxis (PCA) screening test", "assay_type": "in vivo", "text": "The reagin-mediated rat Passive Cutaneous Anaphylaxis (PCA) screening test used to evaluate the present compounds is generally regarded as one of the best animal models for use in predicting the antiallergy activity of test compounds in man. This screen provides a measure of the effectiveness of test compounds in either inhibiting the release or antagonizing the action of mediators arising from the interaction of reaginic antibodies with specific antigen, mediators which are causative factors in allergic disorders. The details of the test are fully described in U.S. Pat. No. 4,031,093.\nThe test compounds were solubilized in aqueous sodium bicarbonate and administered intravenously (i.v.) or per os (p.o.) either one or ten minutes, respectively, prior to antigen challenge. Disodium cromoglycate (DSCG), solubilized in saline, was administered i.v. at the time of challenge and p.o 30 minutes prior to challenge."}, "[3]": {"details": "must be administered by inhalation; cited from earlier work"}, "[4]": {"test_system": "release of mediators, e.g. histamine and SRS-A", "details": "administered to asthmatic patients prior to inhalation of specific antigens; cited from earlier work"}, "[5]": {"details": "po, in aqueous sodium bicarbonate, ten minutes prior to antigen challenge, read-out: ID50 p.o. (dose of compound that inhibits 50% of the response)"}}, "note": "Where two headings read alike, the source gives them in different places."}
{"compound": "Cn1c(=O)c2[nH]cnc2n(C)c1=O", "note": "[theophylline]", "values": [{"measurement": "side effects", "setting": "[1]; in vivo", "value": "cardiac stimulation and gastrointestinal distress"}]}
{"compound": "CNC[C@H](O)c1ccc(O)c(O)c1", "note": "[epinephrine]", "values": [{"measurement": "side effects", "setting": "[1]; treatment of bronchial asthma", "value": "cardiac stimulation and gastrointestinal distress"}]}
{"compound": "O=C(O)c1cc(=O)c2c(OCC(O)COc3cccc4oc(C(=O)O)cc(=O)c34)cccc2o1", "note": "[DSCG, Disodium cromoglycate]", "values": [{"measurement": "ED50", "setting": "[2]; iv, DSCG, i.v., in saline, at the time of challenge, read-out: ID50 i.v. (dose of compound that inhibits 50% of the response)", "value": 0.6, "unit": "mg/kg"}, {"measurement": "ED50", "setting": "[2]; po, DSCG, p.o., in saline, 30 minutes prior to challenge, read-out: ID50 p.o. (dose of compound that inhibits 50% of the response)", "value": "> 30", "unit": "mg/kg"}, {"measurement": "oral absorption", "setting": "[3]", "value": "not orally absorbed"}, {"measurement": "inhibition of release of mediators (histamine, SRS-A)", "setting": "[4]", "value": "inhibits the release of mediators"}, {"measurement": "side effects", "setting": "[1]; in vivo", "value": "without cardiovascular side effects"}]}
{"compound": "CN1[C@@H]2CC[C@H]1C[C@@H](OC(=O)C(CO)c1ccccc1)C2", "note": "(stereo partly shown) [atropine]", "values": [{"measurement": "side effects", "setting": "[1]; treatment of bronchial asthma", "value": "cardiac stimulation and gastrointestinal distress"}]}
{"compound": "CCc1cccn2c(=O)c(C(=O)Nc3nnn[nH]3)cnc12", "note": "[Example 3, 9-Ethyl-4-oxo-4H-pyrido[1,2-a]pyrimidine-3-N-(1H-tetrazol-5-yl)carboxamide]", "values": [{"measurement": "ED50", "setting": "[2]; [5]", "value": 0.1, "unit": "mg/kg"}]}
{"compound": "CC(C)NCC(O)c1ccc(O)c(O)c1", "note": "(stereo not shown) [isoproterenol]", "values": [{"measurement": "side effects", "setting": "[1]; treatment of bronchial asthma", "value": "cardiac stimulation and gastrointestinal distress"}]}
{"compound": "O=C(Nc1nnn[nH]1)c1cnc2ccccn2c1=O", "note": "[Example 1, 4-Oxo-4H-pyrido[1,2-a]pyrimidine-3-N-(1H-tetrazol-5-yl)carboxamide]", "values": [{"measurement": "ED50", "setting": "[2]; [5]", "value": 0.2, "unit": "mg/kg"}]}
{"compound": "Cc1cccn2c(=O)c(C(=O)Nc3nnn[nH]3)cnc12", "note": "[Example 2, 9-Methyl-4-oxo-4H-pyrido[1,2-a]pyrimidine-3-N-(1H-tetrazol-5-yl)carboxamide]", "values": [{"measurement": "ED50", "setting": "[2]; iv, in aqueous sodium bicarbonate, one minute prior to antigen challenge, read-out: ID50 i.v. (dose of compound that inhibits 50% of the response)", "value": 0.04, "unit": "mg/kg"}, {"measurement": "ED50", "setting": "[2]; [5]", "value": 0.1, "unit": "mg/kg"}]}
